Test results: publication PMC5218480 (PLoS ONE, 2017)

System: MV-4-11 cells
Test: Gene expression microarray analysis (Affymetrix PrimeView) and GSEA
Type: cell-based, human
Parameters: RFU PODN (11730768_x_at) / Fold change /veh PODN (11730768_x_at) / RFU LINC00158 (11744669_a_at) / Fold change /veh LINC00158 (11744669_a_at) / RFU DUSP10 (11751237_a_at) / Fold change /veh DUSP10 (11751237_a_at) / RFU ID3 (11757404_x_at) / Fold change /veh ID3 (11757404_x_at) / RFU PLEKHG5 (11737974_s_at) / Fold change /veh PLEKHG5 (11737974_s_at) / RFU LRRC4B (11730491_at) / Fold change /veh LRRC4B (11730491_at) / RFU GIMAP4 (11747438_a_at) / Fold change /veh GIMAP4 (11747438_a_at) / RFU KRT8 (11758183_x_at) / Fold change /veh KRT8 (11758183_x_at) / RFU CNN1 (11734310_a_at) / Fold change /veh CNN1 (11734310_a_at) / RFU VPS37D (11726825_at) / Fold change /veh VPS37D (11726825_at) / RFU C10orf10 (11716522_x_at) / Fold change /veh C10orf10 (11716522_x_at) / RFU KIR2DL2 /// KIR2DL4 /// KIR2DL5A /// KIR2DL5B /// KIR2DS1 /// KIR2DS2 /// KIR2DS3 /// KIR2DS4 /// KIR3DL3 /// KIR3DL3 /// KIR3DS1 (11738374_at) / Fold change /veh KIR2DL2 /// KIR2DL4 /// KIR2DL5A /// KIR2DL5B /// KIR2DS1 /// KIR2DS2 /// KIR2DS3 /// KIR2DS4 /// KIR3DL3 /// KIR3DL3 /// KIR3DS1 (11738374_at) / RFU C1QL1 (11718748_at) / Fold change /veh C1QL1 (11718748_at) / RFU TMPRSS4 (11747572_a_at) / Fold change /veh TMPRSS4 (11747572_a_at) / RFU HAMP (11756126_x_at) / Fold change /veh HAMP (11756126_x_at) / RFU RNFT2 (11725882_a_at) / Fold change /veh RNFT2 (11725882_a_at) / RFU NR4A2 (11747474_a_at) / Fold change /veh NR4A2 (11747474_a_at) / RFU ABCC12 (11746883_a_at) / Fold change /veh ABCC12 (11746883_a_at) / RFU TMEM136 (11760407_x_at) / Fold change /veh TMEM136 (11760407_x_at) / RFU CLDN22 /// WWC2 (11732394_at) / Fold change /veh CLDN22 /// WWC2 (11732394_at) / RFU HLA-DPB1 (11760878_x_at) / Fold change /veh HLA-DPB1 (11760878_x_at) / RFU SPINT1 (11716480_a_at) / Fold change /veh SPINT1 (11716480_a_at) / RFU GAP43 (11754022_s_at) / Fold change /veh GAP43 (11754022_s_at) / RFU A4GNT (11735810_at) / Fold change /veh A4GNT (11735810_at) / RFU PRB3 (11715151_x_at) / Fold change /veh PRB3 (11715151_x_at) / RFU TUBB4B (11761932_at) / Fold change /veh TUBB4B (11761932_at) / RFU CAPN14 (11732068_a_at) / Fold change /veh CAPN14 (11732068_a_at) / RFU TMCC2 (11721928_a_at) / Fold change /veh TMCC2 (11721928_a_at) / RFU IRGQ (11745062_a_at) / Fold change /veh IRGQ (11745062_a_at) / RFU FAM174B (11720279_a_at) / Fold change /veh FAM174B (11720279_a_at) / RFU TMPRSS4 (11748680_a_at) / Fold change /veh TMPRSS4 (11748680_a_at) / RFU FAM212B (11763350_a_at) / Fold change /veh FAM212B (11763350_a_at) / RFU PLEKHG5 (11743358_a_at) / Fold change /veh PLEKHG5 (11743358_a_at) / RFU ZSCAN30 (11745921_a_at) / Fold change /veh ZSCAN30 (11745921_a_at) / RFU CMKLR1 (11741424_a_at) / Fold change /veh CMKLR1 (11741424_a_at) / RFU LOC101060620 /// MAPK8IP1 (11723275_at) / Fold change /veh LOC101060620 /// MAPK8IP1 (11723275_at) / RFU SPTSSB (11747773_x_at) / Fold change /veh SPTSSB (11747773_x_at) / RFU PRSS12 (11739890_at) / Fold change /veh PRSS12 (11739890_at) / RFU BIN1 (11741810_x_at) / Fold change /veh BIN1 (11741810_x_at) / RFU WNT11 (11732464_a_at) / Fold change /veh WNT11 (11732464_a_at) / RFU C10orf10 (11716521_a_at) / Fold change /veh C10orf10 (11716521_a_at) / RFU C5orf56 (11738089_at) / Fold change /veh C5orf56 (11738089_at) / RFU CYB561 (11721691_x_at) / Fold change /veh CYB561 (11721691_x_at) / RFU ANKRD19P (11752326_a_at) / Fold change /veh ANKRD19P (11752326_a_at) / RFU OR2T12 /// OR2T33 /// OR2T8 (11738714_s_at) / Fold change /veh OR2T12 /// OR2T33 /// OR2T8 (11738714_s_at) / RFU VCAN (11748164_a_at) / Fold change /veh VCAN (11748164_a_at) / RFU JSRP1 (11732532_at) / Fold change /veh JSRP1 (11732532_at) / RFU KRTAP10-11 (11738290_x_at) / Fold change /veh KRTAP10-11 (11738290_x_at) / RFU MYO3A (11730013_a_at) / Fold change /veh MYO3A (11730013_a_at) / RFU EBF3 (11725865_a_at) / Fold change /veh EBF3 (11725865_a_at) / RFU CAMK2N1 (11719241_x_at) / Fold change /veh CAMK2N1 (11719241_x_at) / RFU C5orf56 (11738088_a_at) / Fold change /veh C5orf56 (11738088_a_at) / RFU OLFML3 (11715873_a_at) / Fold change /veh OLFML3 (11715873_a_at) / RFU LOC100653217 /// NTM (11731650_a_at) / Fold change /veh LOC100653217 /// NTM (11731650_a_at) / RFU MAPK11 (11762145_a_at) / Fold change /veh MAPK11 (11762145_a_at) / RFU FIZ1 (11724087_x_at) / Fold change /veh FIZ1 (11724087_x_at) / RFU OASL (11726364_x_at) / Fold change /veh OASL (11726364_x_at) / RFU SOX15 (11748057_x_at) / Fold change /veh SOX15 (11748057_x_at) / RFU CD79A (11719716_a_at) / Fold change /veh CD79A (11719716_a_at) / RFU HIST1H1D (11736915_at) / Fold change /veh HIST1H1D (11736915_at) / RFU CASKIN2 (11723855_a_at) / Fold change /veh CASKIN2 (11723855_a_at) / RFU LOC730098 (11760151_x_at) / Fold change /veh LOC730098 (11760151_x_at) / RFU OR4N2 (11742367_at) / Fold change /veh OR4N2 (11742367_at) / RFU PRRT2 (11749266_a_at) / Fold change /veh PRRT2 (11749266_a_at) / RFU SNX32 (11753110_a_at) / Fold change /veh SNX32 (11753110_a_at) / RFU CDHR5 (11726645_a_at) / Fold change /veh CDHR5 (11726645_a_at) / RFU RCAN1 (11760418_a_at) / Fold change /veh RCAN1 (11760418_a_at) / RFU FAM167A (11723789_a_at) / Fold change /veh FAM167A (11723789_a_at) / RFU FAM26E (11764081_at) / Fold change /veh FAM26E (11764081_at) / RFU ISYNA1 (11749810_s_at) / Fold change /veh ISYNA1 (11749810_s_at) / RFU ACY1 (11761880_at) / Fold change /veh ACY1 (11761880_at) / RFU 11764098_at / Fold change /veh 11764098_at / RFU SAMD14 (11745864_x_at) / Fold change /veh SAMD14 (11745864_x_at) / RFU NPB (11741838_a_at) / Fold change /veh NPB (11741838_a_at) / RFU TMPRSS6 (11731388_a_at) / Fold change /veh TMPRSS6 (11731388_a_at) / RFU KRTAP10-2 (11738614_at) / Fold change /veh KRTAP10-2 (11738614_at) / RFU ARHGAP8 /// PRR5-ARHGAP8 (11727945_x_at) / Fold change /veh ARHGAP8 /// PRR5-ARHGAP8 (11727945_x_at) / RFU KRTAP5-7 /// NADSYN1 (11734609_at) / Fold change /veh KRTAP5-7 /// NADSYN1 (11734609_at) / RFU RASL12 (11751679_a_at) / Fold change /veh RASL12 (11751679_a_at) / RFU CDKN2B (11736163_a_at) / Fold change /veh CDKN2B (11736163_a_at) / RFU PRF1 (11729649_at) / Fold change /veh PRF1 (11729649_at) / RFU, ZNF638 /// ZNF638-IT1 / Fold change vs veh, ZNF638 /// ZNF638-IT1 / RFU, PANK3 / Fold change vs veh, PANK3 / RFU, SH3YL1 / Fold change vs veh, SH3YL1 / RFU, ZEB2 / Fold change vs veh, ZEB2 / RFU, NRIP1 / Fold change vs veh, NRIP1 / RFU, PTTG1IP / Fold change vs veh, PTTG1IP / RFU, CAPN2 / Fold change vs veh, CAPN2 / RFU, MED14 / Fold change vs veh, MED14 / RFU, SNORA58 / Fold change vs veh, SNORA58 / RFU, C1orf63 / Fold change vs veh, C1orf63 / RFU, LRRFIP1 / Fold change vs veh, LRRFIP1 / RFU, NDUFAF7 / Fold change vs veh, NDUFAF7 / RFU, SLC12A2 / Fold change vs veh, SLC12A2 / RFU, IBTK / Fold change vs veh, IBTK / RFU, ESF1 / Fold change vs veh, ESF1 / Fold change vs veh, TMEM50B / RFU, TAOK1 / Fold change vs veh, TAOK1 / RFU, ACBD3 / Fold change vs veh, ACBD3 / RFU, TMA16 / Fold change vs veh, TMA16 / RFU, RWDD3 / Fold change vs veh, RWDD3 / RFU, BCAT1 / Fold change vs veh, BCAT1 / RFU, EDEM3 / Fold change vs veh, EDEM3 / RFU, TMEM33 / Fold change vs veh, TMEM33 / RFU, WDR75 / Fold change vs veh, WDR75 / RFU, AHCTF1 / Fold change vs veh, AHCTF1 / RFU, TFRC / Fold change vs veh, TFRC / RFU, ZDHHC17 / Fold change vs veh, ZDHHC17 / RFU, NOM1 / Fold change vs veh, NOM1 / RFU, ARL8B / Fold change vs veh, ARL8B / RFU, ZBTB11 / Fold change vs veh, ZBTB11 / RFU, TAMM41 / Fold change vs veh, TAMM41 / RFU, KIAA1704 /// LOC100996395 / Fold change vs veh, KIAA1704 /// LOC100996395 / RFU, ING1 / Fold change vs veh, ING1 / RFU, TRMT61B / Fold change vs veh, TRMT61B / RFU, FUBP3 / Fold change vs veh, FUBP3 / RFU, TP53 / Fold change vs veh, TP53 / RFU, TNKS2 / Fold change vs veh, TNKS2 / RFU, ZFP14 / Fold change vs veh, ZFP14 / RFU, ACTR2 / Fold change vs veh, ACTR2 / RFU, PPP3R1 / Fold change vs veh, PPP3R1 / RFU, PIK3R1 / Fold change vs veh, PIK3R1 / RFU, HNRNPA1 / Fold change vs veh, HNRNPA1 / RFU, RNF170 / Fold change vs veh, RNF170 / RFU, ZNF28 / Fold change vs veh, ZNF28 / RFU, RNGTT / Fold change vs veh, RNGTT / RFU, OGT / Fold change vs veh, OGT / RFU, BRD1 / Fold change vs veh, BRD1 / RFU, MARS / Fold change vs veh, MARS / RFU, ZNF655 / Fold change vs veh, ZNF655 / RFU, FAHD1 / Fold change vs veh, FAHD1 / RFU, BDP1 / Fold change vs veh, BDP1 / RFU, LRRCC1 / Fold change vs veh, LRRCC1 / RFU, ARID1A / Fold change vs veh, ARID1A / RFU, ZNF146 / Fold change vs veh, ZNF146 / RFU, ZNF330 / Fold change vs veh, ZNF330 / RFU, GPN3 / Fold change vs veh, GPN3 / RFU, C9orf123 / Fold change vs veh, C9orf123 / RFU, N4BP2L2 / Fold change vs veh, N4BP2L2 / RFU, ARFIP1 / Fold change vs veh, ARFIP1 / RFU, FAM179B / Fold change vs veh, FAM179B / RFU, BCL10 / Fold change vs veh, BCL10 / RFU, UHRF1BP1L / Fold change vs veh, UHRF1BP1L / RFU, BET1 / Fold change vs veh, BET1 / RFU, CNOT2 / Fold change vs veh, CNOT2 / RFU, ZNF268 / Fold change vs veh, ZNF268 / Fold change vs veh, ZNF507 / RFU, DGCR2 / Fold change vs veh, DGCR2 / RFU, WDSUB1 / Fold change vs veh, WDSUB1 / Fold change vs veh, HSP90B1 /// MIR3652 / RFU, ADSS / Fold change vs veh, ADSS / RFU, GK / Fold change vs veh, GK / RFU, ZNF148 / Fold change vs veh, ZNF148 / RFU, TAF9 / Fold change vs veh, TAF9 / RFU, SLC1A5 / Fold change vs veh, SLC1A5 / RFU, SLMO2 / Fold change vs veh, SLMO2 / RFU, ABCC4 / Fold change vs veh, ABCC4 / RFU, LOC101060439 /// RAP1B / Fold change vs veh, LOC101060439 /// RAP1B / RFU, RFX7 / Fold change vs veh, RFX7 / RFU, GTPBP10 / Fold change vs veh, GTPBP10 / RFU, CNEP1R1 / Fold change vs veh, CNEP1R1 / RFU, BIVM-ERCC5 /// ERCC5 / Fold change vs veh, BIVM-ERCC5 /// ERCC5 / RFU, ILF3 / Fold change vs veh, ILF3 / RFU 11762660_at / Fold change /veh 11762660_at / RFU VCAN (11757783_s_at) / Fold change /veh VCAN (11757783_s_at) / RFU DDX43 (11728927_at) / Fold change /veh DDX43 (11728927_at) / RFU KRT8 (11758188_x_at) / Fold change /veh KRT8 (11758188_x_at) / RFU NKD1 (11759106_at) / Fold change /veh NKD1 (11759106_at) / RFU SRD5A1 (11742802_a_at) / Fold change /veh SRD5A1 (11742802_a_at) / RFU TPSAB1 /// TPSB2 (11721975_s_at) / Fold change /veh TPSAB1 /// TPSB2 (11721975_s_at) / RFU GSTM3 (11746129_a_at) / Fold change /veh GSTM3 (11746129_a_at) / RFU IL23R (11737362_x_at) / Fold change /veh IL23R (11737362_x_at) / RFU TMEM51 (11727254_a_at) / Fold change /veh TMEM51 (11727254_a_at) / RFU PIWIL2 (11732686_x_at) / Fold change /veh PIWIL2 (11732686_x_at) / RFU ORM1 (11744905_x_at) / Fold change /veh ORM1 (11744905_x_at) / RFU CCDC152 (11743942_at) / Fold change /veh CCDC152 (11743942_at) / RFU ECM1 (11717891_a_at) / Fold change /veh ECM1 (11717891_a_at) / RFU IL23R (11748794_a_at) / Fold change /veh IL23R (11748794_a_at) / RFU TNFAIP8L3 (11732012_x_at) / Fold change /veh TNFAIP8L3 (11732012_x_at) / RFU MBOAT4 (11741988_at) / Fold change /veh MBOAT4 (11741988_at) / RFU 11764193_at / Fold change /veh 11764193_at / RFU TMEM53 (11763286_at) / Fold change /veh TMEM53 (11763286_at) / RFU MAGEB2 (11727129_at) / Fold change /veh MAGEB2 (11727129_at) / RFU TMEM200A (11744735_a_at) / Fold change /veh TMEM200A (11744735_a_at) / RFU CCDC152 (11751479_a_at) / Fold change /veh CCDC152 (11751479_a_at) / RFU FAM211A (11726209_a_at) / Fold change /veh FAM211A (11726209_a_at) / RFU RGS16 (11746705_a_at) / Fold change /veh RGS16 (11746705_a_at) / RFU VCAN (11755009_s_at) / Fold change /veh VCAN (11755009_s_at) / RFU RHOB (11743442_s_at) / Fold change /veh RHOB (11743442_s_at) / RFU RGS16 (11720943_a_at) / Fold change /veh RGS16 (11720943_a_at) / RFU RGS16 (11720944_at) / Fold change /veh RGS16 (11720944_at) / RFU, VPS4B / Fold change vs veh, VPS4B / RFU, CREB1 / Fold change vs veh, CREB1 / RFU, DNAJC13 / Fold change vs veh, DNAJC13 / RFU, GNAQ / Fold change vs veh, GNAQ / RFU, CDK5R1 / Fold change vs veh, CDK5R1 / RFU, ZRANB3 / Fold change vs veh, ZRANB3 / RFU, CUL4A / Fold change vs veh, CUL4A / RFU, CCNY / Fold change vs veh, CCNY / RFU, UFL1 / Fold change vs veh, UFL1 / RFU, COG3 / Fold change vs veh, COG3 / RFU, DIAPH2 / Fold change vs veh, DIAPH2 / RFU, SKA2 / Fold change vs veh, SKA2 / RFU, AFF3 / Fold change vs veh, AFF3 / RFU, LMF1 / Fold change vs veh, LMF1 / RFU, IPO11 / Fold change vs veh, IPO11 / RFU, DFFB / Fold change vs veh, DFFB / RFU, FOXP1 / Fold change vs veh, FOXP1 / RFU, CARD8 / Fold change vs veh, CARD8 / RFU, STRN3 / Fold change vs veh, STRN3 / RFU, ADK / Fold change vs veh, ADK / RFU, RASSF2 / Fold change vs veh, RASSF2 / RFU, WIPF1 / Fold change vs veh, WIPF1 / RFU, LARP1B / Fold change vs veh, LARP1B / RFU, RASA1 / Fold change vs veh, RASA1 / RFU, RB1 / Fold change vs veh, RB1 / RFU, PPFIA1 / Fold change vs veh, PPFIA1 / RFU, MAT2A / Fold change vs veh, MAT2A / RFU, CCT5 / Fold change vs veh, CCT5 / RFU, WDR92 / Fold change vs veh, WDR92 / RFU, CUX1 / Fold change vs veh, CUX1 / RFU, TTC7A / Fold change vs veh, TTC7A / RFU, TMEM135 / Fold change vs veh, TMEM135 / RFU, DEPTOR / Fold change vs veh, DEPTOR / RFU, CPM / Fold change vs veh, CPM / RFU, DNAJB6 / Fold change vs veh, DNAJB6 / RFU, CACNA2D3 / Fold change vs veh, CACNA2D3 / RFU, DTX4 / Fold change vs veh, DTX4 / RFU, TFCP2 / Fold change vs veh, TFCP2 / RFU, GMCL1 /// GMCL1P1 / Fold change vs veh, GMCL1 /// GMCL1P1 / RFU, AEBP2 / Fold change vs veh, AEBP2 / RFU, SNHG1 /// SNORD22 /// SNORD25 /// SNORD26 /// SNORD27 /// SNORD28 /// SNORD29 /// SNORD31 / Fold change vs veh, SNHG1 /// SNORD22 /// SNORD25 /// SNORD26 /// SNORD27 /// SNORD28 /// SNORD29 /// SNORD31 / Fold change (Aza/veh), C12orf56 (ProbeSet 11735607_a_at) / Fold change (ACY-1035/veh), C12orf56 (ProbeSet 11735607_a_at) / Fold change (Aza/veh), FGFR1OP (ProbeSet 11751329_s_at) / Fold change (ACY-1035/veh), FGFR1OP (ProbeSet 11751329_s_at) / Fold change (Aza/veh), VPS36 (ProbeSet 11739960_a_at) / Fold change (ACY-1035/veh), VPS36 (ProbeSet 11739960_a_at) / RFU SYPL1 (11715823_x_at) / Fold change /veh SYPL1 (11715823_x_at) / RFU IGFBP7 (11715501_s_at) / Fold change /veh IGFBP7 (11715501_s_at) / RFU REEP3 (11722064_at) / Fold change /veh REEP3 (11722064_at) / RFU IGLL1 (11728026_x_at) / Fold change /veh IGLL1 (11728026_x_at): dose or concentration left out as unconfirmed
Settings: MV-4-11 cells, 48 hours

SMILES: Nc1ncn([C@@H]2O[C@H](CO)[C@@H](O)[C@H]2O)c(=O)n1 [azacitidine]
- RFU TNFAIP8L3 (11732012_x_at): 9.37 RFU
